Calls of active or inactive are those of the source.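 Rule for the calls: active = lipid-stain IC50 at or below a set limit, with nuclear-stain toxicity IC50 at least five times higher; inactive = the rest.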 A value given as a limit tells only on which side of the number the result lay.

One assay relates to DAPI. In words: triacylglycerol accumulation inhibitor potency, dose response, cell-based, panel, Nile Red and DAPI fluorescence, H9c2 (AID 651630).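 Note: cells exposed to compound overnight before fixation and staining.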 As to conditions: H9c2 cells, DAPI nuclear fluorescence (cytotoxicity counter-readout), oleic acid.
The subject of another assay is TAG. Described as above. As to conditions: H9c2 cells, Nile Red TAG fluorescence, oleic acid.

What is called IC50 is the concentration at which inhibition is half-maximal. Take `COc1cc(-c2cnc3c(NC=O)cc(-c4cccnc4)cn23)cc(OC)c1OC`: the IC50 cytotoxicity (DAPI nuclear signal decrease) in the assay with DAPI (mean of runs) was > 25 µM (inactive); in the assay on DAPI (run 1), above 25 µM; in the assay with DAPI (run 2), above 25 µM. Further, the IC50 in the assay with TAG (mean of runs) is 15.8 µM (inactive); in the assay on TAG (run 1), 14.5 µM; in the assay with TAG (run 2), 17 µM.
`CCn1c(SCC(=O)Nc2nc(-c3ccc(C)cc3)cs2)nnc1-c1ccccc1O`: the IC50 cytotoxicity (DAPI nuclear signal decrease) in the assay on DAPI (run 1) and in the assay with DAPI (run 2) was above 25 µM in each case. The IC50 in the assay on TAG (mean of runs) was 1.68 µM; in the assay on TAG (run 1) it was 1.65 µM; in the assay with TAG (run 2) it was 1.71 µM.
Regarding `COc1ccc(Nc2cc(=O)oc3ccccc23)cc1`, the IC50 cytotoxicity (DAPI nuclear signal decrease) in the assay with DAPI (mean of runs) is > 25 µM (inactive); in the assay with DAPI (run 1) it was above 25 µM; with DAPI (run 2), above 25 µM. In addition, the IC50 in the assay on TAG (mean of runs) was > 25 µM (inactive); in the assay on TAG (run 1), above 25 µM; in the assay with TAG (run 2) it was above 25 µM.
For the compound `O=C(N/N=C/c1cn(-c2ccccc2)nc1-c1cc2ccccc2o1)c1c[nH]c2ccccc12`, the IC50 cytotoxicity (DAPI nuclear signal decrease) was > 25 µM (inactive) in the assay with DAPI (mean of runs), above 25 µM in the assay on DAPI (run 1) and above 25 µM in the assay on DAPI (run 2). Besides, the IC50 was 13.1 µM with TAG (mean of runs), 14.7 µM in the assay on TAG (run 1) and 11.5 µM with TAG (run 2).
With `O=C1Nc2ccc(Br)cc2/C1=N\N=C\C1=C(N2CCOCC2)C(=C/c2ccccc2)/CC1`, the IC50 cytotoxicity (DAPI nuclear signal decrease) in the assay with DAPI (run 1) and in the assay with DAPI (run 2) was above 25 µM each time. For the same compound, the IC50 with TAG (mean of runs) is 0.891 µM; with TAG (run 1), 0.828 µM; in the assay with TAG (run 2) it was 0.954 µM.
For the compound `Cc1ccc(-n2nc(C)c3c(C)c(CCC(=O)Nc4ccc(CN5CCCC5)cc4)c(C)nc32)cc1`, the figures for the IC50 cytotoxicity (DAPI nuclear signal decrease) with DAPI (mean of runs), with DAPI (run 1) and with DAPI (run 2) were > 25 µM (inactive), above 25 µM and above 25 µM, respectively. In addition, the IC50 in the assay with TAG (run 1) is 20.6 µM; in the assay with TAG (run 2), above 25 µM.
On to `Cc1nc(N/N=C/c2cccc(F)c2)cc(N2CCOCC2)n1`, for which the IC50 cytotoxicity (DAPI nuclear signal decrease) with DAPI (mean of runs) was > 25 µM (inactive); in the assay with DAPI (run 1), above 25 µM; in the assay with DAPI (run 2), above 25 µM. Further, the IC50 in the assay with TAG (mean of runs) was 13.8 µM; in the assay on TAG (run 1), 10.9 µM; with TAG (run 2), 16.6 µM.
As to `O=C(Nc1nc(-c2ccccc2)cs1)C1CCCN(S(=O)(=O)c2cccc([N+](=O)[O-])c2)C1` (stereo not given), the figures for the IC50 cytotoxicity (DAPI nuclear signal decrease) in the assay with DAPI (mean of runs), with DAPI (run 1) and in the assay on DAPI (run 2) were > 25 µM (inactive), above 25 µM and above 25 µM, respectively. Moreover, the IC50 was 22.1 µM with TAG (run 1) and above 25 µM with TAG (run 2).
In the case of `O=C1COc2ccc(C(=O)CSc3nc4ccccc4c(=O)n3-c3ccc(Cl)c(Cl)c3)cc2N1`, the IC50 cytotoxicity (DAPI nuclear signal decrease) in the assay on DAPI (mean of runs) was 18.1 µM (inactive); in the assay with DAPI (run 1) it was 18.4 µM; with DAPI (run 2), 17.8 µM. The IC50 with TAG (mean of runs) was 13.8 µM; in the assay with TAG (run 1) it was 14.1 µM; in the assay on TAG (run 2), 13.4 µM.
Regarding `COc1cc(CC(=O)OCC(=O)c2ccc3c(c2)OCCO3)cc(OC)c1OC`, the results for the IC50 cytotoxicity (DAPI nuclear signal decrease) with DAPI (run 1) and with DAPI (run 2) were 2.3 µM and above 25 µM, respectively. The IC50 in the assay on TAG (run 1) was 17.1 µM; in the assay on TAG (run 2), above 25 µM.
Regarding `COc1cc(/C=C/CN2CCC(C(=O)NC(c3ccc(F)cc3)c3ccc4ccccc4n3)CC2)ccc1OC(C)=O` (stereo not given), the values for the IC50 cytotoxicity (DAPI nuclear signal decrease) in the assay with DAPI (mean of runs), in the assay with DAPI (run 1) and with DAPI (run 2) were > 25 µM (inactive), above 25 µM and above 25 µM, respectively. The IC50 in the assay with TAG (mean of runs) is 11.6 µM; in the assay on TAG (run 1) it was 13.3 µM; in the assay with TAG (run 2) it was 9.99 µM.
Consider `O=C(c1ccoc1)N1CCN(c2cc(-c3ccncc3)nc3cc(-c4cccc(Cl)c4)nn23)CC1`, for which the values for the IC50 cytotoxicity (DAPI nuclear signal decrease) in the assay on DAPI (mean of runs), with DAPI (run 1) and in the assay on DAPI (run 2) were > 25 µM (inactive), above 25 µM and above 25 µM, respectively. In addition, the IC50 is above 25 µM in the assay with TAG (run 1) and 23.6 µM with TAG (run 2).
Turning to `COc1cc(OC)c2c(-c3ccccc3)cc(=O)oc2c1C(CCN1CCCCC1)c1ccc(N(C)C)cc1` (stereo not given), the IC50 cytotoxicity (DAPI nuclear signal decrease) in the assay on DAPI (run 1) is 15.9 µM; with DAPI (run 2), above 25 µM. The values for the IC50 in the assay on TAG (run 1) and with TAG (run 2) were 9.65 µM and above 25 µM, respectively.
For `COc1ccc(Nc2nc3cc(-c4sccc4C)sc3c(=O)n2C)cc1OC`, the IC50 cytotoxicity (DAPI nuclear signal decrease) in the assay on DAPI (mean of runs) is > 25 µM (inactive); in the assay with DAPI (run 1), above 25 µM; with DAPI (run 2), above 25 µM. For the same compound, the IC50 in the assay with TAG (mean of runs) was 16.6 µM (inactive); in the assay on TAG (run 1), 16.8 µM; in the assay with TAG (run 2) it was 16.5 µM.

For the origin of these results see PubChem BioAssay AID651630 (Sanford-Burnham Center for Chemical Genomics, 2012).
